Measured values published in PubChem BioAssay AID248 (DTP/NCI, 2004).
“And” between values parts separate entries of the source, which are not always exact repeats. Identical values can stand only once. Toxic doses and inconclusive results are not listed. No stated cut-off is given here; in the data, active means T/C of 150% or more; inactive means T/C below 125%.

Tested on: L1210 leukemia ip in BDF1 mice, survival T/C
Assay: NCI In Vivo Anticancer Drug Screen. Data for tumor model L1210 Leukemia (intraperitoneal) in B6D2F1 (BDF1) mice
Details: endpoint: mean survival time, higher = longer survival
Summary of the method: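 Transplantable tumor model; survival measured in treated vs vehicle control mice. Value = treated/control.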

[1] = dose: 50.0 mg/kg/injection, schedule: Q01DX009 (ip), vehicle: Klucel (hydroxypropylcellulose) (HPC)
[2] = dose: 100.0 mg/kg/injection, schedule: Q04DX003 (ip), vehicle: Klucel (hydroxypropylcellulose) (HPC)
[3] = dose: 75.0 mg/kg/injection, schedule: Q01DX001 (ip), vehicle: saline
[4] = dose: 150.0 mg/kg/injection, schedule: Q01DX001 (ip), vehicle: saline
[5] = dose: 100.0 mg/kg/injection, schedule: Q01DX001 (ip), vehicle: saline
[6] = dose: 200.0 mg/kg/injection, schedule: Q01DX001 (ip), vehicle: saline
[7] = dose: 400.0 mg/kg/injection, schedule: Q01DX001 (ip), vehicle: saline
[8] = dose: 100.0 mg/kg/injection, schedule: Q04DX003 (ip), vehicle: saline
[9] = dose: 200.0 mg/kg/injection, schedule: Q04DX003 (ip), vehicle: saline
[10] = dose: 400.0 mg/kg/injection, schedule: Q04DX003 (ip), vehicle: saline
[11] = dose: 100.0 mg/kg/injection, schedule: Q01DX001 (ip), vehicle: carboxymethylcellulose (CMC)
[12] = dose: 100.0 mg/kg/injection, schedule: Q01DX009 (ip), vehicle: Klucel (hydroxypropylcellulose) (HPC)

Measured: T/C

CCCc1c2cc(OC)c(OC)cc2cc2c3cc(OC)c(OC)cc3cc[n+]12 (tested in a mixture with another compound)
inactive: dose: 12.5 mg/kg/injection, schedule: Q01DX009 (ip), vehicle: Klucel (hydroxypropylcellulose) (HPC) 109 % of control | dose: 25.0 mg/kg/injection, schedule: Q01DX009 (ip), vehicle: Klucel (hydroxypropylcellulose) (HPC) 107 % of control | [1] 106 % of control and 123 % of control | [2] 100 % of control | dose: 200.0 mg/kg/injection, schedule: Q04DX003 (ip), vehicle: Klucel (hydroxypropylcellulose) (HPC) 110 % of control

O=C1NC2(C=CC(Br)CC2)C(=O)C12CCCCC2 (centres undefined)
inactive: [3] 104 % of control | [4] 100 % of control | dose: 300.0 mg/kg/injection, schedule: Q01DX001 (ip), vehicle: saline 102 % of control

NC1CCCCC1Cl (centres undefined)
inactive: [5] 98 % of control | [6] 96 % of control | [7] 98 % of control

CC(SCc1cc(=O)[nH]c(=O)[nH]1)C(=O)O (centres undefined)
inactive: [8] 98 % of control | [9] 98 % of control | [10] 96 % of control

Cc1ccc(C(/C=C/c2ccccc2)=N\N=C(N)N)cc1
inactive: dose: 15.0 mg/kg/injection, schedule: Q01DX Z (ip), vehicle: methylcellulose (MC) 87 % of control | dose: 30.0 mg/kg/injection, schedule: Q01DX Z (ip), vehicle: methylcellulose (MC) 87 % of control | dose: 30.0 mg/kg/injection, schedule: Q01DX Z (oral), vehicle: methylcellulose (MC) 93 % of control | dose: 60.0 mg/kg/injection, schedule: Q01DX Z (ip), vehicle: methylcellulose (MC) 97 % of control | dose: 60.0 mg/kg/injection, schedule: Q01DX Z (oral), vehicle: methylcellulose (MC) 87 % of control | dose: 120.0 mg/kg/injection, schedule: Q01DX Z (oral), vehicle: methylcellulose (MC) 95 % of control | dose: 240.0 mg/kg/injection, schedule: Q01DX Z (oral), vehicle: methylcellulose (MC) 95 % of control | dose: 480.0 mg/kg/injection, schedule: Q01DX Z (oral), vehicle: methylcellulose (MC) 100 % of control

CCCCCCCC(=O)N(C(C)C)C(C)C
inactive: [11] 108 % of control | dose: 100.0 mg/kg/injection, schedule: Q01DX009 (ip), vehicle: carboxymethylcellulose (CMC) 101 % of control and 103 % of control | dose: 100.0 mg/kg/injection, schedule: Q04DX002 (ip), vehicle: carboxymethylcellulose (CMC) 100 % of control | dose: 100.0 mg/kg/injection, schedule: Q04DX003 (ip), vehicle: carboxymethylcellulose (CMC) 100 % of control | dose: 200.0 mg/kg/injection, schedule: Q01DX001 (ip), vehicle: carboxymethylcellulose (CMC) 98 % of control | dose: 200.0 mg/kg/injection, schedule: Q01DX009 (ip), vehicle: carboxymethylcellulose (CMC) 93 % of control and 109 % of control | dose: 200.0 mg/kg/injection, schedule: Q04DX002 (ip), vehicle: carboxymethylcellulose (CMC) 89 % of control | dose: 200.0 mg/kg/injection, schedule: Q04DX003 (ip), vehicle: carboxymethylcellulose (CMC) 102 % of control | dose: 400.0 mg/kg/injection, schedule: Q01DX001 (ip), vehicle: carboxymethylcellulose (CMC) 96 % of control | dose: 400.0 mg/kg/injection, schedule: Q01DX009 (ip), vehicle: carboxymethylcellulose (CMC) 103 % of control and 111 % of control | dose: 400.0 mg/kg/injection, schedule: Q04DX002 (ip), vehicle: carboxymethylcellulose (CMC) 96 % of control | dose: 400.0 mg/kg/injection, schedule: Q04DX003 (ip), vehicle: carboxymethylcellulose (CMC) 105 % of control

CCOC(=O)C1=C(C)NC(C)=C(C(=O)OCC)C1c1ccccc1Cl
inactive: [8] 97 % of control | [9] 117 % of control | [10] 87 % of control

N#CC(C#N)=Cc1cccc([N+](=O)[O-])c1
inactive: dose: 50.0 mg/kg/injection, schedule: Q01DX001 (ip), vehicle: carboxymethylcellulose (CMC) 102 % of control | [11] 102 % of control | [12] 97 % of control | [2] 102 % of control | dose: 400.0 mg/kg/injection, schedule: Q04DX003 (ip), vehicle: Klucel (hydroxypropylcellulose) (HPC) 106 % of control

CC(Cc1ccc2c(c1)OCO2)C(C)Cc1ccc2c(c1)OCO2 (centres undefined)
inactive: dose: 100.0 mg/kg/injection, schedule: Q01DX009 (ip), vehicle: other 102 % of control | dose: 100.0 mg/kg/injection, schedule: Q04DX003 (ip), vehicle: other 90 % of control | dose: 200.0 mg/kg/injection, schedule: Q01DX009 (ip), vehicle: other 109 % of control | dose: 200.0 mg/kg/injection, schedule: Q04DX003 (ip), vehicle: other 102 % of control | dose: 400.0 mg/kg/injection, schedule: Q01DX009 (ip), vehicle: other 91 % of control | dose: 400.0 mg/kg/injection, schedule: Q04DX003 (ip), vehicle: other 90 % of control

CCOC(=O)c1[nH]c(C(=O)O)c(CCC(=O)OC)c1C
inactive: [1] 110 % of control | dose: 100.0 mg/kg/injection, schedule: Q01DX001 (ip), vehicle: Klucel (hydroxypropylcellulose) (HPC) 93 % of control | [12] 90 % of control | dose: 200.0 mg/kg/injection, schedule: Q01DX001 (ip), vehicle: Klucel (hydroxypropylcellulose) (HPC) 98 % of control | dose: 300.0 mg/kg/injection, schedule: Q01DX009 (ip), vehicle: Klucel (hydroxypropylcellulose) (HPC) 100 % of control | dose: 400.0 mg/kg/injection, schedule: Q01DX001 (ip), vehicle: Klucel (hydroxypropylcellulose) (HPC) 97 % of control

O=C(C#Cc1ccccc1)OCC#Cc1ccccc1
inactive: [5] 102 % of control | [6] 96 % of control | [7] 94 % of control

Cc1ccc(SCCCN)cc1
inactive: [3] 100 % of control | [4] 94 % of control

COc1ccc2ccccc2c1-c1c([N+](=O)[O-])ccc2ccccc12
inactive: dose: 12.5 mg/kg/injection, schedule: Q04DX002 (ip), vehicle: saline with Tween-80 97 % of control | dose: 25.0 mg/kg/injection, schedule: Q04DX002 (ip), vehicle: saline with Tween-80 90 % of control | dose: 50.0 mg/kg/injection, schedule: Q04DX002 (ip), vehicle: saline with Tween-80 87 % of control | dose: 100.0 mg/kg/injection, schedule: Q04DX002 (ip), vehicle: saline with Tween-80 93 % of control

Cc1ccc[n+](CCC(N)=O)c1
inactive: dose: 100.0 mg/kg/injection, schedule: Q01DX009 (ip), vehicle: saline 92 % of control | [8] 102 % of control | dose: 200.0 mg/kg/injection, schedule: Q01DX009 (ip), vehicle: saline 93 % of control | [9] 102 % of control | dose: 400.0 mg/kg/injection, schedule: Q01DX009 (ip), vehicle: saline 97 % of control | [10] 94 % of control

CNC(=O)Nc1nnc(C)s1
inactive: [12] 98 % of control | dose: 200.0 mg/kg/injection, schedule: Q01DX009 (ip), vehicle: Klucel (hydroxypropylcellulose) (HPC) 106 % of control | dose: 400.0 mg/kg/injection, schedule: Q01DX009 (ip), vehicle: Klucel (hydroxypropylcellulose) (HPC) 114 % of control

CCCCNC(C)(C)CCl
inactive: dose: 25.0 mg/kg/injection, schedule: Q01DX009 (ip), vehicle: saline 103 % of control | dose: 25.0 mg/kg/injection, schedule: Q04DX003 (ip), vehicle: water 110 % of control | dose: 50.0 mg/kg/injection, schedule: Q01DX009 (ip), vehicle: saline 102 % of control | dose: 50.0 mg/kg/injection, schedule: Q01DX009 (ip), vehicle: water 91 % of control | dose: 50.0 mg/kg/injection, schedule: Q04DX003 (ip), vehicle: water 116 % of control | [5] 104 % of control | dose: 100.0 mg/kg/injection, schedule: Q04DX003 (ip), vehicle: water 98 % of control and 102 % of control
